Measurements as given in US20090062273A1, “3-H-pyrazolopyridines and salts thereof, pharmaceutical compositions comprising same, methods of preparing same and uses of same” (priority 2006, published 2009).

Tests used:
Tie2 [1] = biological target: T1, Tie2 (Homo sapiens, UniProt Q02763); assay: Tie2 ELISA assay (cellular Tie2 autophosphorylation); assay type: cell-based; set-up: expressed in transfected cells; host or cells: CHO (CHO Tie2/DHFR); settings: CHO cells stably transfected with Tie2, stimulated by angiopoietin-2; Tie2 autophosphorylation by sandwich-ELISA; read-out: Tie 2 activity (assay 1)
Protocol: Cellular activity of compounds of the present invention as inhibitors of Tie2 kinase activity was measured employing a Tie2 ELISA assay as described in the following paragraphs. Herein CHO cell-cultures, which are stably transfected by known techniques with Tie2 using DHFR deficiency as selection marker, are stimulated by angiopoietin-2. The specific autophosphorylation of Tie2 receptors is quantified with a sandwich-ELISA using anti-Tie2 antibodies for catch and anti-phosphotyrosine antibodies coupled to HRP for detection.
• 96 well tissue culture plate, sterile, Greiner • 96 well FluoroNunc plate MaxiSorp Surface C, Nunc • 96 well plate polypropylene for compound dilution in DMSO • CHO Tie2/DHFR (transfected cells) • PBS−; PBS++, DMSO • MEM alpha Medium with Glutamax-I without Ribonucleosides and Deoxyribonucleosides (Gibco #32561-029) • with 10% FCS after dialysis! and 1% PenStrep • Lysis buffer: 1 Tablet “Complete” protease inhibitor • 1 cap Vanadate (1 mL>40 mg/mL; working solution 2 mM) • ad 50 mL with Duschl-Puffer • pH 7.6 • Anti-Tie2-antibody 1:425 in Coating Buffer pH 9.6 • Stock solution: 1.275 mg/mL>working.: 3 μg/mL • PBST: 2 bottles PBS (10×)+10 ml Tween, fill up with VE-water • RotiBlock 1:10 in VE-water • Anti-Phosphotyrosine HRP-Conjugated 1:10000 in 3% TopBlock • 3% TopBlock in PBST • BM Chemiluminescence ELISA Substrate (POD) • solution B 1:100 solution A • SF9 cell culture medium • Ang2-Fc in SF9 cell culture medium
• Dispense 5×10^4 cells/well/98 μL in 96 well tissue culture plate • Incubate at 37° C./5% CO2 • After 24 h add compounds according to desired concentrations • Add also to control and stimulated values without compounds 2 μL DMSO • And mix for a few min at room temperature • Add 100 μL Ang2-Fc to all wells except control, which receives insect medium • Incubate 20 min at 37° C. • Wash 3× with PBS++ • Add 100 μl Lysis buffer/well and shake a couple of min at room temperature • Store lysates at […] before utilizing for the ELISA
• Coat 96 well FluoroNunc Plate MaxiSorp Surface C with anti-Tie2 mAb 1:425 in Coating buffer pH 9.6; 100 μL/well overnight at 4° C. • Wash 2× with PBST • Block plates with 250 μL/well RotiBlock 1:10 in VE-water • Incubate for 2 h at room temperature or overnight at 4° C. shaking • Wash 2× in PBST • Add thawed lysates to wells and incubate overnight shaking at 4° C. • Wash 2× with PBST • Add 100 μL/well anti-Phosphotyrosine HRP-Conjugated 1:10000 in 3% TopBlock (3% TopBlock in PBST) and incubate overnight under shaking • Wash 6× with PBST • Add 100 μL/well BM Chemiluminescence ELISA Substrate (POD) solutions 1 und 2 (1:100) • Determine luminescence with the LumiCount. Assay 2: Tie-2-Kinase HTRF-Assay without Kinase Preactivation
Target sequence in this assay (Q02763 23-1124, species assumed): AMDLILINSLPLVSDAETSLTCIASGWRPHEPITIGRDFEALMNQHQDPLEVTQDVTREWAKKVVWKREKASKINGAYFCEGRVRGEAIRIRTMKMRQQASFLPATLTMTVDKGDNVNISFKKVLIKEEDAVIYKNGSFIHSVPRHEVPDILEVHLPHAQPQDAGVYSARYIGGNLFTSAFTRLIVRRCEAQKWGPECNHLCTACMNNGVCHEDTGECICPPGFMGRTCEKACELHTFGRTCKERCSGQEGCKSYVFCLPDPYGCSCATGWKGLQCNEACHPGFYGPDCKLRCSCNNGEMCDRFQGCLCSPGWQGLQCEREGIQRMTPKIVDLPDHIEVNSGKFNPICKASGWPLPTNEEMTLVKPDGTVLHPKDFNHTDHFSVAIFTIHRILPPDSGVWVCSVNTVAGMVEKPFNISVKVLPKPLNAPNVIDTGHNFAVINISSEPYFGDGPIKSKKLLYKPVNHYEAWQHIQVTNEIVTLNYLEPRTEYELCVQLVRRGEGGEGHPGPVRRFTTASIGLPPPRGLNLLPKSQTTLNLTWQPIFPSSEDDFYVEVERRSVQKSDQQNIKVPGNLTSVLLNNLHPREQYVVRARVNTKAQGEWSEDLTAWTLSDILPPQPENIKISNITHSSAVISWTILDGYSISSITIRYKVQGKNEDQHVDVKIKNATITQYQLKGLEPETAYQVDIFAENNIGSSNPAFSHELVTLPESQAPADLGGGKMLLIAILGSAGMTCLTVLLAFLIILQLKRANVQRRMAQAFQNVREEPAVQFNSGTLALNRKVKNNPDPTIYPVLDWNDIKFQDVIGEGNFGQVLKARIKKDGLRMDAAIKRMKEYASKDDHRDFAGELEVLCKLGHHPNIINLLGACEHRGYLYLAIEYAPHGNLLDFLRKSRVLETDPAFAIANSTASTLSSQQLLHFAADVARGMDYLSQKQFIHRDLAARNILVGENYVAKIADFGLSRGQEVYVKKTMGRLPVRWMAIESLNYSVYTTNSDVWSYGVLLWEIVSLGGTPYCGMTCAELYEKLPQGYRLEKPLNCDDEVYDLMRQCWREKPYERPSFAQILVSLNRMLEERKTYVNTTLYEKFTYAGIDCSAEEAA

Tie2 [2] = biological target: T1, Tie2; assay: Tie-2-Kinase HTRF-Assay without kinase preactivation; assay type: biochemical; set-up: fusion protein of GST and the intracellular domains of Tie-2; GST; made in house; host or cells: insect cells (Hi-5); settings: GST-Tie-2 intracellular domains, 10 μM ATP
Text: Tie2-inhibitory activity of compounds of the present invention was quantified employing two Tie2 HTRF assay as described in the following paragraphs.
A recombinant fusion protein of GST and the intracellular domains of Tie-2, expressed in insect cells (Hi-5) and purified by Glutathion-Sepharose affinity chromatography was used as kinase. Alternatively, commercially available GST-Tie2-fusion protein (Upstate Biotechnology, Dundee, Scotland) can be used As substrate for the kinase reaction the biotinylated peptide biotin-Ahx-EPKDDAYPLYSDFG (C-terminus in amid form) was used which can be purchased e.g. from the company Biosynthan GmbH (Berlin-Buch, Germany). Detection of phosphorylated product is achieved specifically by a trimeric detection complex consisting of the phosphorylated substrate, streptavidin-XLent (SA-XLent) which binds to biotin, and Europium Cryptate-labeled anti-phosphotyrosine antibody PT66 which binds to phosphorylated tyrosine.
Tie-2 (3.5 ng/measurement point) was incubated for 60 min at 22° C. in the presence of 10 μM adenosine-tri-phosphate (ATP) and 1 μM substrate peptide (biotin-Ahx-EPKDDAYPLYSDFG-NH2) with different concentrations of test compounds (0 μM and concentrations in the range 0.001-20 μM) in 5 μl assay buffer [50 mM Hepes/NaOH pH 7, 10 mM MgCl2, 0.5 mM MnCl2, 1.0 mM dithiothreitol, 0.01% NP40, protease inhibitor mixture (“Complete w/o EDTA” from Roche, 1 tablet per 2.5 ml), 1% (v/v) dimethylsulfoxide]. The reaction was stopped by the addition of 5 μl of an aqueous buffer (25 mM Hepes/NaOH pH 7.5, 0.28% (w/v) bovine serum albumin) containing EDTA (90 mM) and the HTRF (Homogeneous Time Resolved Fluorescence) detection reagents streptavidine-XLent (0.2 μM, from Cis Biointernational, Marcoule, France) and PT66-Eu-Chelate (0.3 ng/μl; a europium-chelate labelled anti-phospho-tyrosine antibody from Perkin Elmer).
The resulting mixture was incubated 1 h at 22° C. to allow the binding of the biotinylated phosphorylated peptide to the streptavidine-XLent and the PT66-Eu-Chelate. Subsequently the amount of phosphorylated substrate peptide was evaluated by measurement of the resonance energy transfer from the PT66-Eu-Chelate to the streptavidine-XLent. Therefore, the fluorescence emissions at 620 nm and 665 nm after excitation at 350 nm was measured in a HTRF reader, e.g. a Rubystar (BMG Labtechnologies, Offenburg, Germany) or a Viewlux (Perkin-Elmer). The ratio of the emissions at 665 nm and at […] was taken as the measure for the amount of phosphorylated substrate peptide. The data were normalised (enzyme reaction without inhibitor=0% inhibition, all other assay components but no enzyme=100% inhibition) and IC50 values were calculated by a 4 parameter fit using an inhouse software.
Target sequence in this assay (Q02763 770-1124 limits assumed, species assumed): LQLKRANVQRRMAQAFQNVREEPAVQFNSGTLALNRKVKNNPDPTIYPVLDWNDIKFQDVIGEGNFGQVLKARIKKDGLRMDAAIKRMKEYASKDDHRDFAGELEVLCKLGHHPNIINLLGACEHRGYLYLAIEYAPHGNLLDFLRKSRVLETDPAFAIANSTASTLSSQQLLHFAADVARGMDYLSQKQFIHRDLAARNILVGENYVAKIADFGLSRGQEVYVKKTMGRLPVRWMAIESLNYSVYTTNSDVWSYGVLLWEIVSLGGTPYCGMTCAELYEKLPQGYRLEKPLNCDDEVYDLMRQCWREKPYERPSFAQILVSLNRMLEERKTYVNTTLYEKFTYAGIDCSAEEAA

Row | Structure (SMILES) | IC50 (Tie2 [1]) | IC50 (Tie2 [2])
1 | COCCn1ncc2c(-c3ccc(NC(=O)Nc4cccc(C(F)(F)F)c4)cc3)cncc21 [Example 12.1, 1-{4-[1-(2-Methoxy-ethyl)-1H-pyrazolo[3,4-c]pyridin-4-yl]-phenyl}-3-(3-trifluoromethyl-phenyl)-urea] | < 501 nM | < 501 nM
2 | COCCn1ncc2c(-c3ccc(NC(=O)Nc4cc(C)ccc4F)cc3)cncc21 [Example 12.3, 1-(2-Fluoro-5-methyl-phenyl)-3-{4-[1-(2-methoxy-ethyl)-1H-pyrazolo[3,4-c]pyridin-4-yl]-phenyl}-urea] | < 501 nM | < 501 nM
3 | COCCn1ncc2c(-c3ccc(NC(=O)Nc4cccc(C(F)(F)F)c4)c(F)c3)cncc21 [Example 12.4, 1-{2-Fluoro-4-[1-(2-methoxy-ethyl)-1H-pyrazolo[3,4-c]pyridin-4-yl]-phenyl}-3-(3-trifluoromethyl-phenyl)-urea] | < 501 nM | < 501 nM
4 | COCCn1ncc2c(-c3ccc(NC(=O)Nc4cc(C(F)(F)F)ccc4F)c(F)c3)cncc21 [Example 12.5, 1-{2-Fluoro-4-[1-(2-methoxy-ethyl)-1H-pyrazolo[3,4-c]pyridin-4-yl]-phenyl}-3-(2-fluoro-5-trifluoromethyl-phenyl)-urea] | < 501 nM | < 501 nM
5 | Cn1ncc2c(-c3ccc(NC(=O)Nc4cc(C(C)(C)C)on4)cc3)cncc21 [Example 13.2, 1-(5-tert-Butyl-isoxazol-3-yl)-3-[4-(1-methyl-1H-pyrazolo[3,4-c]pyridin-4-yl)-phenyl]-urea] | < 501 nM | < 501 nM
6 | Cn1ncc2c(-c3ccc(NC(=O)Nc4cc(C(C)(C)C)nn4-c4ccccc4)cc3)cncc21 [Example 13.4, 1-(5-tert-Butyl-2-phenyl-2H-pyrazol-3-yl)-13-[4-(1-methyl-1H-pyrazolo[3,4-c]pyridin-4-yl)-phenyl]-urea] | < 501 nM | < 501 nM
7 | CN1CCN(Cc2ccc(NC(=O)Nc3ccc(-c4cncc5c4cnn5C)cc3F)cc2C(F)(F)F)CC1 [Example 13.6, 1-[2-Fluoro-4-(1-methyl-1H-pyrazolo[3,4-c]pyridin-4-yl)-phenyl]-3-[4-(4-methyl-piperazin-1-ylmethyl)-3-trifluoromethyl-phenyl]-urea] | < 501 nM | < 501 nM
8 | CN(C)c1ccc(C(F)(F)F)cc1NC(=O)Nc1ccc(-c2cncc3c2cnn3C)cc1 [Example 13.11, 1-(2-Dimethylamino-5-trifluoromethyl-phenyl)-3-[4-(1-methyl-1H-pyrazolo[3,4-c]pyridin-4-yl)-phenyl]-urea] | < 501 nM | < 501 nM
9 | CN(C)C1CCN(c2ccc(C(F)(F)F)cc2NC(=O)Nc2ccc(-c3cncc4c3cnn4C)cc2)C1 (stereo not shown) [Example 13.12, 1-[2-(3-Dimethylamino-pyrrolidin-1-yl)-5-trifluoromethyl-phenyl]-3-[4-(1-methyl-1H-pyrazolo[3,4-c]pyridin-4-yl)-phenyl]-urea] | < 501 nM | < 501 nM
10 | CN(C)CCN(C)c1ccc(C(F)(F)F)cc1NC(=O)Nc1ccc(-c2cncc3c2cnn3C)cc1 [Example 13.13, 1-{2-[(2-Dimethylamino-ethyl)-methyl-amino]-5-trifluoromethyl-phenyl}-3-[4-(1-methyl-1H-pyrazolo[3,4-c]pyridin-4-yl)-phenyl]-urea] | < 501 nM | < 501 nM

The remaining lines, values ahead:

Row | IC50 (Tie2 [1]) | IC50 (Tie2 [2]) | Structure (SMILES)
11 | < 501 nM | < 501 nM | Cn1nc(C(C)(C)C)cc1NC(=O)Nc1ccc(-c2cncc3c2cnn3C)cc1 [Example 14.3, 1-(5-tert-Butyl-2-methyl-2H-pyrazol-3-yl)-3-[4-(1-methyl-1H-pyrazolo[3,4-c]pyridin-4-yl)-phenyl]-urea]
12 | < 501 nM | < 501 nM | Cn1ncc2c(-c3ccc(NC(=O)Nc4cc(C(F)(F)F)ccn4)c(F)c3)cncc21 [Example 14.5, 1-[2-Fluoro-4-(1-methyl-1H-pyrazolo[3,4-c]pyridin-4-yl)-phenyl]-3-(4-trifluoromethyl-pyridin-2-yl)-urea]
13 | < 501 nM | < 501 nM | CC(C)c1cc(NC(=O)Nc2ccc(-c3cncc4c3cnn4C)cc2)n(-c2cccc(F)c2)n1 [Example 15.1, 1-[2-(3-Fluoro-phenyl)-5-isopropyl-2H-pyrazol-3-yl]-3-[4-(1-methyl-1H-pyrazolo[3,4-c]pyridin-4-yl)-phenyl]-urea]
14 | < 501 nM | < 501 nM | CC(C)c1cc(NC(=O)Nc2ccc(-c3cncc4c3cnn4C)cc2F)n(-c2cccc(F)c2)n1 [Example 15.2, 1-[2-Fluoro-4-(1-methyl-1H-pyrazolo[3,4-c]pyridin-4-yl)-phenyl]-3-[2-(3-fluoro-phenyl)-5-isopropyl-2H-pyrazol-3-yl]-urea]
15 | < 501 nM | < 501 nM | COc1cccc(-n2nc(C(C)(C)C)cc2NC(=O)Nc2ccc(-c3cncc4c3cnn4C)cc2)c1 [Example 15.5, 1-[5-tert-Butyl-2-(3-methoxy-phenyl)-2H-pyrazol-3-yl]-3-[4-(1-methyl-1H-pyrazolo[3,4-c]pyridin-4-yl)-phenyl]-urea]
16 | < 501 nM | < 501 nM | Cn1ncc2c(-c3ccc(NC(=O)Nc4cc(C(C)(C)C)nn4-c4ccc(F)cc4)cc3)cncc21 [Example 15.7, 1-[5-tert-Butyl-2-(4-fluoro-phenyl)-2H-pyrazol-3-yl]-3-[4-(1-methyl-1H-pyrazolo[3,4-c]pyridin-4-yl)-phenyl]-urea]
17 | < 501 nM | < 501 nM | Cn1ncc2c(-c3ccc(NC(=O)Nc4cc(C(C)(C)C)nn4-c4ccncc4)cc3)cncc21 [Example 15.10, 1-(5-tert-Butyl-2-pyridin-4-yl-2H-pyrazol-3-yl)-3-[4-(1-methyl-1H-pyrazolo[3,4-c]pyridin-4-yl)-phenyl]-urea]
